In patent US9114150B2, “Stable aqueous compositions comprising bioactive creatine species” (JHO INTELLECTUAL PROPERTY HOLDINGS, LLC, priority 2008, dated 2015):
Each block holds one compound with its values, some of them ahead of it.

Experiment: Stability study of aqueous solutions (0.250 mg/mL) assayed by HPLC at periodic intervals for 60 days
Format: physicochemical
Conditions: for Creatinine in solution (HPLC assay): 0.250 mg/mL; for Prepared substance remaining in solution (HPLC assay): buffer, 0 days, 0.25 mg/mL; for Fraction converted to creatinine: aqueous media
Protocol: Creatinol-O-Phospate Solution: A batch of pure water or distilled water is put in a container, adjusted to a prescribed of pH 3 or pH 7 with a normal buffer and buffer salts, and heated to a temperature of 20° to 99° C. To 100 parts by weight of the warm water is added 0.1 to 0.3 parts by weight of the Creatinol-O-Phophate (COP) which is dissolved by stirring. The pH is not particularly limited but is desirably not higher than pH 12 taking the physiological influences of the gastrointestinal tracts into consideration.
They were stored at room temperature (25 C, 77 F), at refrigerator temperature (4 C, 39 F), and at elevated temperature (40 C, 104 F) in glass scintillation vials. These samples were assayed by HPLC at periodic intervals for 60 days and evaluated relative to Standard regression curves of known concentrations of the actives and of creatinine, the primary known degradation product of creatine.

[1] = prepared at pH 3.0, 25° C., 39 Days
[2] = prepared at pH 3.0, 25° C., 60 days
[3] = prepared at pH 3.0, 25° C., INITIAL
[4] = prepared at pH 3.0, 40° C., 39 Days
[5] = prepared at pH 3.0, 40° C., 60 days
[6] = prepared at pH 3.0, 40° C., INITIAL
[7] = prepared at pH 7.0, 40° C., 39 Days
[8] = prepared at pH 7.0, 40° C., 60 days
[9] = prepared at pH 7.0, 40° C., INITIAL

Stability by increase in creatinine levels over time (FIG. 1, in words): stable and resistant to decomposition | Stability in aqueous solution (in words): stable | Creatinine in solution (HPLC assay) (pH 3.0, 4° C., 39 Days): 0.00 mg/mL | Creatinine in solution (HPLC assay) (pH 3.0, 4° C., 3 day): 0.0 mg/mL | Creatinine in solution (HPLC assay) (pH 3.0, 4° C., 10 days): 0.0 mg/mL | Creatinine in solution (HPLC assay) (pH 3.0, 4° C., 21 days): 0.0 mg/mL | Creatinine in solution (HPLC assay) (pH 3.0, 4° C., 60 days): 0.00 mg/mL | Creatinine in solution (HPLC assay) (pH 3.0, 4° C., INITIAL): 0.0 mg/mL | Creatinine in solution (HPLC assay) (pH 3.0, 25° C., 39 Days): 0.00 mg/mL | Creatinine in solution (HPLC assay) (pH 3.0, 25° C., 3 day): 0.0 mg/mL | Creatinine in solution (HPLC assay) (pH 3.0, 25° C., 10 days): 0.0 mg/mL | Creatinine in solution (HPLC assay) (pH 3.0, 25° C., 21 days): 0.0 mg/mL | Creatinine in solution (HPLC assay) (pH 3.0, 25° C., 60 days): 0.00 mg/mL | Creatinine in solution (HPLC assay) (pH 3.0, 25° C., INITIAL): 0.0 mg/mL | Creatinine in solution (HPLC assay) (pH 3.0, 40° C., 39 Days): 0.00 mg/mL | Creatinine in solution (HPLC assay) (pH 3.0, 40° C., 3 day): 0.0 mg/mL | Creatinine in solution (HPLC assay) (pH 3.0, 40° C., 10 days): 0.0 mg/mL | Creatinine in solution (HPLC assay) (pH 3.0, 40° C., 21 days): 0.0 mg/mL | Creatinine in solution (HPLC assay) (pH 3.0, 40° C., 60 days): 0.00 mg/mL | Creatinine in solution (HPLC assay) (pH 3.0, 40° C., INITIAL): 0.0 mg/mL | Creatinine in solution (HPLC assay) (pH 7.0, 4° C., 39 Days): 0.00 mg/mL | Creatinine in solution (HPLC assay) (pH 7.0, 4° C., 3 day): 0.0 mg/mL | Creatinine in solution (HPLC assay) (pH 7.0, 4° C., 10 days): 0.0 mg/mL | Creatinine in solution (HPLC assay) (pH 7.0, 4° C., 21 days): 0.0 mg/mL | Creatinine in solution (HPLC assay) (pH 7.0, 4° C., 60 days): 0.00 mg/mL | Creatinine in solution (HPLC assay) (pH 7.0, 4° C., INITIAL): 0.0 mg/mL | Creatinine in solution (HPLC assay) (pH 7.0, 25° C., 39 Days): 0.00 mg/mL | Creatinine in solution (HPLC assay) (pH 7.0, 25° C., 3 day): 0.0 mg/mL | Creatinine in solution (HPLC assay) (pH 7.0, 25° C., 10 days): 0.0 mg/mL | Creatinine in solution (HPLC assay) (pH 7.0, 25° C., 21 days): 0.0 mg/mL | Creatinine in solution (HPLC assay) (pH 7.0, 25° C., 60 days): 0.00 mg/mL | Creatinine in solution (HPLC assay) (pH 7.0, 25° C., INITIAL): 0.0 mg/mL | Creatinine in solution (HPLC assay) (pH 7.0, 40° C., 39 Days): 0.00 mg/mL | Creatinine in solution (HPLC assay) (pH 7.0, 40° C., 3 day): 0.0 mg/mL | Creatinine in solution (HPLC assay) (pH 7.0, 40° C., 10 days): 0.0 mg/mL | Creatinine in solution (HPLC assay) (pH 7.0, 40° C., 21 days): 0.0 mg/mL | Creatinine in solution (HPLC assay) (pH 7.0, 40° C., 60 days): 0.00 mg/mL | Creatinine in solution (HPLC assay) (pH 7.0, 40° C., INITIAL): 0.0 mg/mL | Prepared substance remaining in solution (HPLC assay) (pH 3): 0.247 mg/ml mg/mL | Prepared substance remaining in solution (HPLC assay) (pH 7): 0.226 mg/ml mg/mL | pH of the solution (prepared at pH 3.0, 4° C., 39 Days): 3.1 | pH of the solution (prepared at pH 3.0, 4° C., 60 days): 3.1 | pH of the solution (prepared at pH 3.0, 4° C., INITIAL): 3.0 | pH of the solution [1]: 3.1 | pH of the solution [2]: 3.1 | pH of the solution [3]: 3.0 | pH of the solution [4]: 3.0 | pH of the solution [5]: 3.0 | pH of the solution [6]: 3.0 | pH of the solution (prepared at pH 7.0, 4° C., 39 Days): 5.2 | pH of the solution (prepared at pH 7.0, 4° C., 60 days): 5.2 | pH of the solution (prepared at pH 7.0, 4° C., INITIAL): 7.0 | pH of the solution (prepared at pH 7.0, 25° C., 39 Days): 5.3 | pH of the solution (prepared at pH 7.0, 25° C., 60 days): 5.3 | pH of the solution (prepared at pH 7.0, 25° C., INITIAL): 7.0 | pH of the solution [7]: 5.5 | pH of the solution [8]: 5.5 | pH of the solution [9]: 7.0
Compound: CN(CCOP(=O)(O)O)C(=N)N [Creatinol-O-Phosphate, Creatinol-O-phosphate]

Compound: CN(CC(=O)O)C(=N)N.O [Creatine Monohydrate, reference compound]
Creatinine in solution (HPLC assay) (pH 3.0, 25° C., 39 Days): 0.154 mg/mL | Creatinine in solution (HPLC assay) (pH 3.0, 25° C., 3 day): 0.026 mg/mL | Creatinine in solution (HPLC assay) (pH 3.0, 25° C., 10 days): 0.072 mg/ml mg/mL | Creatinine in solution (HPLC assay) (pH 3.0, 25° C., 21 days): 0.111 mg/mL | Creatinine in solution (HPLC assay) (pH 3.0, 25° C., 60 days): 0.167 mg/mL | Creatinine in solution (HPLC assay) (pH 3.0, 25° C., INITIAL): 0.000 mg/mL | Creatinine in solution (HPLC assay) (pH 3.0, 40° C., 39 Days): 0.186 mg/mL | Creatinine in solution (HPLC assay) (pH 3.0, 40° C., 3 day): 0.125 mg/Ml mg/mL | Creatinine in solution (HPLC assay) (pH 3.0, 40° C., 10 days): 0.177 mg/ml mg/mL | Creatinine in solution (HPLC assay) (pH 3.0, 40° C., 21 days): 0.186 mg/mL | Creatinine in solution (HPLC assay) (pH 3.0, 40° C., 60 days): 0.187 mg/mL | Creatinine in solution (HPLC assay) (pH 3.0, 40° C., INITIAL): 0.000 mg/mL | Creatinine in solution (HPLC assay) (pH 7.0, 40° C., 39 Days): 0.068 mg/mL | Creatinine in solution (HPLC assay) (pH 7.0, 40° C., 3 day): 0.008 mg/mL | Creatinine in solution (HPLC assay) (pH 7.0, 40° C., 60 days): 0.101 mg/mL | Creatinine in solution (HPLC assay) (pH 7.0, 40° C., INITIAL): 0.000 mg/mL | Fraction converted to creatinine (39 days, pH 3.0, stored at 40° C.): 74% | Fraction converted to creatinine (39 days, pH 7.0, stored at 40° C.): 28% | Fraction converted to creatinine (pH 3.0, stored at 4° C.): 62% | pH of the solution [1]: 3.4 | pH of the solution [2]: 3.4 | pH of the solution [3]: 3.0 | pH of the solution [4]: 3.4 | pH of the solution [5]: 3.4 | pH of the solution [6]: 3.0 | pH of the solution [7]: 7.4 | pH of the solution [8]: 7.4 | pH of the solution [9]: 7.0
